Measurements reported in publication PMC10114980, “Triple targeting of mutant EGFR^L858R/T790M, COX-2, and 15-LOX: design and synthesis of novel quinazolinone tethered phenyl urea derivatives for anti-inflammatory and anticancer evaluation” (Journal of Enzyme Inhibition and Medicinal Chemistry, 2023).

Assays:
PC-3 = experiment: NCI single dose screen, PC-3; assay type: cell-based; details: Homo sapiens; PC-3, prostate cancer; single dose 10^−5 M; read-out: growth inhibition percentage
Description: (§1) Screening of the anticancer activity of the newly synthesised compounds (6a, 6c, 6d, 6e, 6j, 6l, 6m, 6n, 6o, and 6p) was performed by the US National Cancer Institute (NCI) using 60 different human tumour cell lines in accordance with standard procedures formerly reported.
(§2) In vitro anticancer screening was carried out for the selected compounds at a single dose (10^−5 M) against 60 different human tumour cell lines of nine different cancer cell types: leukaemia, lung, colon, CNS, melanoma, ovarian, renal, prostate, and breast cancers.

COLO 205 = experiment: NCI single dose screen, COLO 205; assay type: cell-based; details: Homo sapiens; COLO 205, colon cancer; single dose 10^−5 M; read-out: growth inhibition percentage
Description: as §1, §2

ovine COX-1 = target: T1, ovine COX-1 (Ovis aries, UniProt P05979); experiment: In vitro COX-1 inhibition assay kit (Cayman); assay type: biochemical; details: mean ± SEM, n = 3 replicates
T1 sequence (P05979 25-600): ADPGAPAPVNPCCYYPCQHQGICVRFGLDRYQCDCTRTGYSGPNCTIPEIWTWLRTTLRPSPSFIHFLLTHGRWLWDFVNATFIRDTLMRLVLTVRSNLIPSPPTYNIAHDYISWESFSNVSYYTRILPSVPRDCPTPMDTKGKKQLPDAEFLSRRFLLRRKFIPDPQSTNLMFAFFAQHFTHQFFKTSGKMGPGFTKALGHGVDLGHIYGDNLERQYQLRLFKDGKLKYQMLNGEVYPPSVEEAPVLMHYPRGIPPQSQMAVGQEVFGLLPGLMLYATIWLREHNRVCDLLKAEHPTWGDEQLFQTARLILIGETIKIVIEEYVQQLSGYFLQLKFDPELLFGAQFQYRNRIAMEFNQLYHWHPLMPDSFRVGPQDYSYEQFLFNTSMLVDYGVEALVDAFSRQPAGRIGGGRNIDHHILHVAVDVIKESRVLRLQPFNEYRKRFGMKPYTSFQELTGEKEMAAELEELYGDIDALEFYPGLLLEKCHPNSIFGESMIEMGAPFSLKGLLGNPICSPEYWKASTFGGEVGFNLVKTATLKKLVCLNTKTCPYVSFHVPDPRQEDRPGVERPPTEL
Description: The half-maximal inhibitory concentration (IC50, μM) was determined, and the COX-2 selectivity index (SI) was calculated as IC50 (COX-1)/IC50 (COX-2).

M14 = experiment: NCI single dose screen, M14; assay type: cell-based; details: Homo sapiens; M14, melanoma; single dose 10^−5 M; read-out: growth inhibition percentage
Description: as §1, §2

NCI-H522 = experiment: NCI single dose screen, NCI-H522; assay type: cell-based; details: Homo sapiens; NCI-H522, non-small cell lung cancer; single dose 10^−5 M; read-out: growth inhibition percentage
Description: as §1, §2

ACHN = experiment: NCI single dose screen, ACHN; assay type: cell-based; details: Homo sapiens, renal cancer, single dose 10^−5 M, read-out: growth inhibition percentage
Description: as §1, §2

HCT-116 = experiment: NCI single dose screen, HCT-116; assay type: cell-based; details: Homo sapiens; HCT-116, colon cancer; single dose 10^−5 M; read-out: growth inhibition percentage
Description: as §1, §2

HT29 = experiment: NCI single dose screen, HT29; assay type: cell-based; details: Homo sapiens, HT-29; HT29, colon cancer; single dose 10^−5 M; read-out: growth inhibition percentage
Description: as §1, §2

HL-60(TB) = experiment: NCI single dose screen, HL-60(TB); assay type: cell-based; details: Homo sapiens, leukaemia, single dose 10^−5 M, read-out: growth inhibition percentage
Description: as §1, §2

NCI-H460 = experiment: NCI single dose screen, NCI-H460; assay type: cell-based; details: Homo sapiens; NCI-H460, non-small cell lung cancer; single dose 10^−5 M; read-out: growth inhibition percentage
Description: as §1, §2

LOX IMVI = experiment: NCI single dose screen, LOX IMVI; assay type: cell-based; details: Homo sapiens, melanoma, single dose 10^−5 M, read-out: growth inhibition percentage
Description: as §1, §2

BT-549 = experiment: NCI single dose screen, BT-549; assay type: cell-based; details: Homo sapiens; BT-549, breast cancer; single dose 10^−5 M; read-out: growth inhibition percentage
Description: as §1, §2

SN12C = experiment: NCI single dose screen, SN12C; assay type: cell-based; details: Homo sapiens, renal cancer, single dose 10^−5 M, read-out: growth inhibition percentage
Description: as §1, §2

wild-type EGFR = target: T2, wild-type EGFR (Homo sapiens, UniProt P00533); experiment: In vitro EGFR inhibition assay, wild type; assay type: biochemical; details: read-out: EGFR^WT IC50
T2 construct: purchased AssayQuant Technologies, Inc. (Marlboro, MA, USA)

RPMI-8226 = experiment: NCI single dose screen, RPMI-8226; assay type: cell-based; details: Homo sapiens; RPMI-8226, leukaemia; single dose 10^−5 M; read-out: growth inhibition percentage
Description: as §1, §2

HCC-2998 = experiment: NCI single dose screen, HCC-2998; assay type: cell-based; details: Homo sapiens; HCC-2998, colon cancer; single dose 10^−5 M; read-out: growth inhibition percentage
Description: as §1, §2

SNB-19 = experiment: NCI single dose screen, SNB-19; assay type: cell-based; details: Homo sapiens; SNB-19, CNS cancer; single dose 10^−5 M; read-out: growth inhibition percentage
Description: as §1, §2

HOP-62 = experiment: NCI single dose screen, HOP-62; assay type: cell-based; details: Homo sapiens; HOP-62, non-small cell lung cancer; single dose 10^−5 M; read-out: growth inhibition percentage
Description: as §1, §2

A498 = experiment: NCI single dose screen, A498; assay type: cell-based; details: Homo sapiens; A498, renal cancer; single dose 10^−5 M; read-out: growth inhibition percentage
Description: as §1, §2

MCF7 = experiment: NCI single dose screen, MCF7; assay type: cell-based; details: Homo sapiens; MCF7, breast cancer; single dose 10^−5 M; read-out: growth inhibition percentage
Description: as §1, §2

MALME-3M = experiment: NCI single dose screen, MALME-3M; assay type: cell-based; details: Homo sapiens, melanoma, single dose 10^−5 M, read-out: growth inhibition percentage
Description: as §1, §2

K-562 = experiment: NCI single dose screen, K-562; assay type: cell-based; details: Homo sapiens, K562; K-562, leukaemia; single dose 10^−5 M; read-out: growth inhibition percentage
Description: as §1, §2

MDA-MB-468 = experiment: NCI single dose screen, MDA-MB-468; assay type: cell-based; details: Homo sapiens; MDA-MB-468, breast cancer; single dose 10^−5 M; read-out: growth inhibition percentage
Description: as §1, §2

SK-MEL-2 = experiment: NCI single dose screen, SK-MEL-2; assay type: cell-based; details: Homo sapiens; SK-MEL-2, melanoma; single dose 10^−5 M; read-out: growth inhibition percentage
Description: as §1, §2

CAKI-1 = experiment: NCI single dose screen, CAKI-1; assay type: cell-based; details: Homo sapiens; CAKI-1, renal cancer; single dose 10^−5 M; read-out: growth inhibition percentage
Description: as §1, §2

UACC-257 = experiment: NCI single dose screen, UACC-257; assay type: cell-based; details: Homo sapiens; UACC-257, melanoma; single dose 10^−5 M; read-out: growth inhibition percentage
Description: as §1, §2

T2 sequence (P00533 25-1210): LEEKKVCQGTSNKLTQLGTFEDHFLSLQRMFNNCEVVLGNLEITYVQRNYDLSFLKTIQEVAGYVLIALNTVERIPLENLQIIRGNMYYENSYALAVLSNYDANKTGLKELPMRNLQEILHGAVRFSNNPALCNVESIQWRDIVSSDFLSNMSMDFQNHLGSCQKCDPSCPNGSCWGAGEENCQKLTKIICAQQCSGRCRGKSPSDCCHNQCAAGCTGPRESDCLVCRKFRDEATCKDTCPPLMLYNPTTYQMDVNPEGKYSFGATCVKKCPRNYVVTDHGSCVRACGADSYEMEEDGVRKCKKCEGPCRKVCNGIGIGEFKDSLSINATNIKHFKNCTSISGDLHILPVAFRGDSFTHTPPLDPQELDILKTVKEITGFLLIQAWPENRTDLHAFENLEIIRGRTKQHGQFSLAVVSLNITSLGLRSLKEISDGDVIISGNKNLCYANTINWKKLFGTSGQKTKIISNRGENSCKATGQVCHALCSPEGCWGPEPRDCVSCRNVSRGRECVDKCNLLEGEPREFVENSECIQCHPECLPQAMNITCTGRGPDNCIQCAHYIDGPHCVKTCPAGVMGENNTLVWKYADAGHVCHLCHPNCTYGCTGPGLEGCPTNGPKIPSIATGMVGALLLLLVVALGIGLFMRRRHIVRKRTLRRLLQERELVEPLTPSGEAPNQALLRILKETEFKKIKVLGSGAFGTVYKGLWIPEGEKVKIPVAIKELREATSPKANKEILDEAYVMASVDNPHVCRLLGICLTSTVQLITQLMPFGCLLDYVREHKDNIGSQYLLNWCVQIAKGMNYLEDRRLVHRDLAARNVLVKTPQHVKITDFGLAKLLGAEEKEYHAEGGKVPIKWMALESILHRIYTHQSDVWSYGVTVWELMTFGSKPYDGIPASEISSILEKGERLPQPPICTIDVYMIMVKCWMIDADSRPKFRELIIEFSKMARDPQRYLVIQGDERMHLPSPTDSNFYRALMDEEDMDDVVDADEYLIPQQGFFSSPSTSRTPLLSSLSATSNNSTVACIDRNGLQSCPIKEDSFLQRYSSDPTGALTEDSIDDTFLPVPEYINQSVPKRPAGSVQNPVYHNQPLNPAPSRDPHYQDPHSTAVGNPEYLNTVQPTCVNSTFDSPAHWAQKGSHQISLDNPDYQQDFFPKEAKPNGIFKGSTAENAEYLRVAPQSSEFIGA

CN1c2ccccc2C(=O)N(NC(=O)Nc2ccc(F)cc2)C1c1ccccc1 (centres unmarked) [Compound 6m, 1-(4-Fluorophenyl)-3-(1-methyl-4-oxo-2-phenyl-1,4-dihydroquinazolin-3(2H)-yl)urea]
inhibition at 10 µM (PC-3): 22.1% | inhibition at 10 µM (COLO 205): < 10% | IC50 (ovine COX-1): 12.4 ± 2.74 µM | inhibition at 10 µM (M14): 18.9% | inhibition at 10 µM (NCI-H522): < 10% | inhibition at 10 µM (ACHN): < 10% | inhibition at 10 µM (HCT-116): < 10% | inhibition at 10 µM (HT29): < 10% | inhibition at 10 µM (HL-60(TB)): < 10% | inhibition at 10 µM (NCI-H460): < 10% | inhibition at 10 µM (LOX IMVI): 21.9% | inhibition at 10 µM (BT-549): < 10% | inhibition at 10 µM (SN12C): < 10% | IC50 (wild-type EGFR): > 100 µM | inhibition at 10 µM (RPMI-8226): 16.1% | inhibition at 10 µM (HCC-2998): < 10% | inhibition at 10 µM (SNB-19): < 10% | inhibition at 10 µM (HOP-62): < 10% | inhibition at 10 µM (A498): < 10% | inhibition at 10 µM (MCF7): 21.2% | inhibition at 10 µM (MALME-3M): 10.8% | inhibition at 10 µM (K-562): < 10% | inhibition at 10 µM (MDA-MB-468): < 10% | inhibition at 10 µM (SK-MEL-2): < 10% | inhibition at 10 µM (CAKI-1): < 10% | inhibition at 10 µM (UACC-257): < 10%

CN1c2ccccc2C(=O)N(NC(=O)Nc2ccc(F)cc2)C1c1ccc(F)cc1 (centres unmarked) [Compound 6n, 1-(4-Fluorophenyl)-3-(2–(4-fluorophenyl)-1-methyl-4-oxo-1,4-dihydroquinazolin-3(2H)-yl)urea]
inhibition at 10 µM (PC-3): 38.1% | inhibition at 10 µM (COLO 205): < 10% | IC50 (ovine COX-1): 10.5 ± 1.48 µM | inhibition at 10 µM (M14): 23.2% | inhibition at 10 µM (NCI-H522): < 10% | inhibition at 10 µM (ACHN): 12.6% | inhibition at 10 µM (HCT-116): 22.9% | inhibition at 10 µM (HT29): < 10% | inhibition at 10 µM (HL-60(TB)): < 10% | inhibition at 10 µM (NCI-H460): < 10% | inhibition at 10 µM (LOX IMVI): 31.6% | inhibition at 10 µM (BT-549): < 10% | inhibition at 10 µM (SN12C): < 10% | IC50 (wild-type EGFR): > 100 µM | inhibition at 10 µM (RPMI-8226): 33.1% | inhibition at 10 µM (HCC-2998): < 10% | inhibition at 10 µM (SNB-19): < 10% | inhibition at 10 µM (HOP-62): 13.3% | inhibition at 10 µM (A498): < 10% | inhibition at 10 µM (MCF7): 29.9% | inhibition at 10 µM (MALME-3M): 17.6% | inhibition at 10 µM (K-562): 22.1% | inhibition at 10 µM (MDA-MB-468): < 10% | inhibition at 10 µM (SK-MEL-2): 12.5% | inhibition at 10 µM (CAKI-1): 25.1% | inhibition at 10 µM (UACC-257): < 10%

CN1c2ccccc2C(=O)N(NC(=O)Nc2ccc(F)cc2)C1c1ccc([N+](=O)[O-])cc1 (centres unmarked) [Compound 6o, 1-(4-Fluorophenyl)-3–(1-methyl-2-(4-nitrophenyl)-4-oxo-1,4-dihydroquinazolin-3(2H)-yl)urea]
inhibition at 10 µM (PC-3): 31% | inhibition at 10 µM (COLO 205): < 10% | IC50 (ovine COX-1): > 100 µM | inhibition at 10 µM (M14): 18% | inhibition at 10 µM (NCI-H522): < 10% | inhibition at 10 µM (ACHN): < 10% | inhibition at 10 µM (HCT-116): 21.6% | inhibition at 10 µM (HT29): < 10% | inhibition at 10 µM (HL-60(TB)): < 10% | inhibition at 10 µM (NCI-H460): < 10% | inhibition at 10 µM (LOX IMVI): 29.5% | inhibition at 10 µM (BT-549): < 10% | inhibition at 10 µM (SN12C): < 10% | IC50 (wild-type EGFR): 52.4 ± 1.25 µM | inhibition at 10 µM (RPMI-8226): 22.4% | inhibition at 10 µM (HCC-2998): < 10% | inhibition at 10 µM (SNB-19): 11.4% | inhibition at 10 µM (HOP-62): < 10% | inhibition at 10 µM (A498): < 10% | inhibition at 10 µM (MCF7): 17.9% | inhibition at 10 µM (MALME-3M): 14.1% | inhibition at 10 µM (K-562): 17.5% | inhibition at 10 µM (MDA-MB-468): < 10% | inhibition at 10 µM (SK-MEL-2): < 10% | inhibition at 10 µM (CAKI-1): 18.4% | inhibition at 10 µM (UACC-257): < 10%

COc1ccc(C2N(NC(=O)Nc3ccc(F)cc3)C(=O)c3ccccc3N2C)cc1 (centres unmarked) [Compound 6p, 1-(4-Fluorophenyl)-3-(2–(4-methoxyphenyl)-1-methyl-4-oxo-1,4-dihydroquinazolin-3(2H)-yl)urea]
inhibition at 10 µM (PC-3): 15.2% | inhibition at 10 µM (COLO 205): < 10% | IC50 (ovine COX-1): 88.5 ± 3.01 µM | inhibition at 10 µM (M14): 11.8% | inhibition at 10 µM (NCI-H522): < 10% | inhibition at 10 µM (ACHN): < 10% | inhibition at 10 µM (HCT-116): 14% | inhibition at 10 µM (HT29): < 10% | inhibition at 10 µM (HL-60(TB)): < 10% | inhibition at 10 µM (NCI-H460): < 10% | inhibition at 10 µM (LOX IMVI): 18.1% | inhibition at 10 µM (BT-549): < 10% | inhibition at 10 µM (SN12C): < 10% | IC50 (wild-type EGFR): > 100 µM | inhibition at 10 µM (RPMI-8226): 11.2% | inhibition at 10 µM (HCC-2998): < 10% | inhibition at 10 µM (SNB-19): < 10% | inhibition at 10 µM (HOP-62): < 10% | inhibition at 10 µM (A498): < 10% | inhibition at 10 µM (MCF7): 14.7% | inhibition at 10 µM (MALME-3M): < 10% | inhibition at 10 µM (K-562): < 10% | inhibition at 10 µM (MDA-MB-468): < 10% | inhibition at 10 µM (SK-MEL-2): < 10% | inhibition at 10 µM (CAKI-1): < 10% | inhibition at 10 µM (UACC-257): < 10%
